Target: T1, human Npt2a (Homo sapiens, UniProt Q06495)
T1 construct: expressed in transfected cells
T1 sequence (Q06495 1-639): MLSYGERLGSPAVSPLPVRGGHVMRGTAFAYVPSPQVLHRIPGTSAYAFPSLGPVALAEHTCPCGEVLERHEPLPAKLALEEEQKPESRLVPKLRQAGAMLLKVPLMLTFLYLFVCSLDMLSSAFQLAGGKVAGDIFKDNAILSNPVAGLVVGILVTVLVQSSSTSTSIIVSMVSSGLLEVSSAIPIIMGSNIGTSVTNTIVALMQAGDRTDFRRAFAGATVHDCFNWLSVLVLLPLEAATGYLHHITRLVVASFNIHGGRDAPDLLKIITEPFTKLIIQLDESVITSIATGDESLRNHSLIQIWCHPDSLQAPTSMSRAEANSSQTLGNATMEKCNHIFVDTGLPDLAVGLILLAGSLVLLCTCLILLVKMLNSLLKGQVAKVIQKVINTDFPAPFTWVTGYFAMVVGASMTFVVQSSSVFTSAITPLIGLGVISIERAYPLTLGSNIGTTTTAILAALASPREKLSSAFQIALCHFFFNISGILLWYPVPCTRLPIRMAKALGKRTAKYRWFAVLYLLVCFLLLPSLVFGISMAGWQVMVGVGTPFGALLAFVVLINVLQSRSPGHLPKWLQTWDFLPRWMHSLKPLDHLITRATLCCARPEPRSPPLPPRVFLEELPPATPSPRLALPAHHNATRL
Assay: Npt2a activity cell based assay, membrane potential dye, CHO T-REx hNpt2a cells
Conditions: doxycycline-induced, depolarization by sodium phosphate influx, average or median values if tested more than once
Description: For measuring Npt2a activity in a cell based assay, a stable CHO cell line with inducible Npt2a expression was generated. Therefore, CHO T-Rex cells (life technologies cat. R718-07) were stably transfected with doxycycline-inducible human NPT2a (pcDNA5TO-hNpt2a). The obtained CHO T-REx hNpt2a cells were routinely cultured in Dulbecco's MEM/F12 (4.5 g/l Glucose, Gibco cat. 21331-020; 500 mL) supplemented with 10 ml Glutamax 100×, Sodium pyruvate (7 mL of 100 mM solution), HEPES (10 mL of 1 M solution), Sodium bicarbonate (10 mL of 7.5% solution), 10% Fetal Bovine Serum Tetracycline free (Clontech cat. 631106, 500 ml), Penicillin-Streptomycin (5 mL of 100× Solution), Blasticidin 10 μg/mL and 400 μg/mL Hygromycin.
Activity of Npt2a was detected by following depolarization of cellular membrane potential by influx of sodium phosphate using fluorescent membrane potential dye kit BLUE (Molecular devices cat. R8034). For Npt2a activity measurements, CHO T-Rex hNpt2a cells were seeded into 1536 well microtiter plates (GREINER Bio-One cat. 782092) with 750 cells/well in 7 μL/w of complete medium (2% Tetracycline-free FBS, 2% Poly-D-Lysine) without selective agents+Doxycycline 0.5 μg/mL to induce Npt2a gene expression, and grown for 24 h at 37° C., 5% carbon dioxide.
On the day of experiment a 1×MPdye Loading Solution was freshly prepared by re-suspending 15 mg of Blue MPdye powder in 10 mL of NHE buffer sodium-free (140 mM N-Methyl-D-glucamine, 5.4 mM KCl, 1 mM CaCl2, 11 mM D(±)-Glucose water free, 1.2 mM MgCl2, 10 mM HEPES; pH 7.4 (adjusted with hydrochloric acid); sterile filtered). 5 μl medium was removed from plates by robotic manipulation, then 5 μL/well of sodium-free NHE buffer was added. After incubation for 2 min, this washing step was repeated once. Then, 5 μL/w of buffer was removed from plates and cells were incubated for 5 min at room temperature with 5 μL/w of MPdye Loading Solution (1× in Sodium-free NHE Buffer). Test compounds were added to the cells at final test concentrations between 50 μM and 1 nM (0.6 μL/well, final DMSO 0.6%, prepared in MPDye Loading Solution) and incubated for 5 min at room temperature.
Plates were analyzed with an in house CCD camera device using a λexc 510-545 nm/λem 565-625 nm filter. Fluorescence was detected for 15 sec (background measurement M1). Activity of Npt2a was triggered by addition of 2 μL/well of 30 mM Na+ and 1 mM phosphate (prepared in a mixture of NHE Buffer Na+ free and NHE Buffer 140 mM Na+). Fluorescence was followed for 2-3 min (depolarization measurement M2). Data was normalized to cell number and dye loading efficiency by calculating M2/M1. This quotient was plotted against test compound concentration. Graph Pad Prism or equivalent in house software was used to create sigmoidal dose-response curves (variable slope) and determine IC50 values.

Compound | IC50 [nM]
Cc1nn(-c2cc(Nc3c(C)c(-c4ccc(OC(F)(F)F)cc4)nn3CC3CC3)ncn2)c(C)c1Cl [Example 310, 6-(4-chloro-3,5-dimethyl-1H-pyrazol-1-yl)-N-{1-(cyclopropylmethyl)-4-methyl-3-[4-(trifluoromethoxy)phenyl]-1H-pyrazol-5-yl}pyrimidin-4-amine] | 21
Cc1cc(C)n(-c2cc(Nc3nn(CCC4CC4)c(-c4ccc(C#N)cc4)c3C)ncn2)n1 [Example 212, 4-[1-(2-cyclopropylethyl)-3-{[6-(3,5-dimethyl-1H-pyrazol-1-yl)pyrimidin-4-yl]amino}-4-methyl-1H-pyrazol-5-yl]benzonitrile] | 1170
CCc1c(Nc2cc(-n3nc(C)cc3C)ncn2)n[nH]c1-c1ccc(F)cc1C [Example 131, 6-(3,5-dimethyl-1H-pyrazol-1-yl)-N-[4-ethyl-5-(4-fluoro-2-methylphenyl)-1H-pyrazol-3-yl]pyrimidin-4-amine] | 1600
Cc1nn(-c2cc(Nc3c(C)c(-c4ccc(C(F)F)nc4)nn3CC3CC3)ncn2)c(C)c1Cl [Example 511, 6-(4-chloro-3,5-dimethyl-1H-pyrazol-1-yl)-N-{1-(cyclopropylmethyl)-3-[6-(difluoromethyl)pyridin-3-yl]-4-methyl-1H-pyrazol-5-yl}pyrimidin-4-amine] | 120
COC(=O)Nc1c(C)nn(-c2cc(Nc3c(C)c(-c4ccc(F)cc4)nn3CC3CC3)ncn2)c1C [Example 556, methyl [1-(6-{[1-(cyclopropylmethyl)-3-(4-fluorophenyl)-4-methyl-1H-pyrazol-5-yl]amino}pyrimidin-4-yl)-3,5-dimethyl-1H-pyrazol-4-yl]carbamate] | 810
CCc1c(Nc2cc(-n3nc(C)c4cnccc43)ncn2)nn(C)c1-c1ccc(F)cc1 [Example 224, N-[4-ethyl-5-(4-fluorophenyl)-1-methyl-1H-pyrazol-3-yl]-6-(3-methyl-1H-pyrazolo[4,3-c]pyridin-1-yl)pyrimidin-4-amine] | 47
CCCN1Cc2cnn(-c3cc(Nc4c(C)c(-c5ccc(F)cc5)nn4CC4CC4)ncn3)c2C1 [Example 522, N-[1-(cyclopropylmethyl)-3-(4-fluorophenyl)-4-methyl-1H-pyrazol-5-yl]-6-(5-propyl-5,6-dihydropyrrolo[3,4-c]pyrazol-1(4H)-yl)pyrimidin-4-amine] | 910
CNc1ccc(-c2nn(CCOC)c(Nc3cc(-n4nc(C)c(Cl)c4C)ncn3)c2C)cc1 [Example 521, 6-(4-chloro-3,5-dimethyl-1H-pyrazol-1-yl)-N-{1-(2-methoxyethyl)-4-methyl-3-[4-(methylamino)phenyl]-1H-pyrazol-5-yl}pyrimidin-4-amine] | 8
Cc1cc(C)n(-c2cc(Nc3c(C)c(-c4ccc(C(F)(F)F)nc4)nn3C)ncn2)n1 [Example 549, 6-(3,5-dimethyl-H-pyrazol-1-yl)-N-{1,4-dimethyl-3-[6-(trifluoromethyl)pyridin-3-yl]-1H-pyrazol-5-yl}pyrimidin-4-amine] | 2600
CCOC(=O)c1c(C)nn(-c2cc(Nc3n[nH]c(-c4ccc(C#N)cc4)c3C)ncn2)c1C [Example 136, ethyl 1-(6-{[5-(4-cyanophenyl)-4-methyl-1H-pyrazol-3-yl]amino}pyrimidin-4-yl)-3,5-dimethyl-1H-pyrazole-4-carboxylate] | 360
CC(=O)c1c(Nc2cc(-n3nc(C)cc3C)ncn2)nn(C)c1-c1ccc(F)cc1 [Example 82, 1-[3-{[6-(3,5-dimethyl-1H-pyrazol-1-yl)pyrimidin-4-yl]amino}-5-(4-fluorophenyl)-1-methyl-1H-pyrazol-4-yl]ethanone] | 1500
Cc1nn(-c2cc(Nc3c(C)c(-c4ccc(C(F)(F)F)nc4)nn3CC3CC3)ncn2)c(C)c1Cl [Example 534, 6-(4-chloro-3,5-dimethyl-1H-pyrazol-1-yl)-N-{1-(cyclopropylmethyl)-4-methyl-3-[6-(trifluoromethyl)pyridin-3-yl]-1H-pyrazol-5-yl}pyrimidin-4-amine] | 1500
COC(C)c1c(C)nn(-c2cc(Nc3nn(C)c(-c4ccc(F)cc4)c3C)ncn2)c1C (single isomer, unassigned) [Example 345, N-[5-(4-fluorophenyl)-1,4-dimethyl-1H-pyrazol-3-yl]-6-{4-[1-methoxyethyl]-3,5-dimethyl-1H-pyrazol-1-yl}pyrimidin-4-amine] | 7
CCc1c(-c2ccc(C#N)cc2)nn(CC2CC2)c1Nc1cc(-n2nc(C)c3ccncc32)ncn1 [Example 203, 4-[1-(cyclopropylmethyl)-4-ethyl-5-{[6-(3-methyl-1H-pyrazolo[3,4-c]pyridin-1-yl)pyrimidin-4-yl]amino}-1H-pyrazol-3-yl]benzonitrile] | 1400
Cc1cc(C)n(-c2cc(Nc3c(C)c(-c4ccc(C(F)(F)F)cc4)nn3CC3CC3)ncn2)n1 [Example 306, N-{1-(cyclopropylmethyl)-4-methyl-3-[4-(trifluoromethyl)phenyl]-1H-pyrazol-5-yl}-6-(3,5-dimethyl-1H-pyrazol-1-yl)pyrimidin-4-amine] | 60
Cc1nn(-c2cc(Nc3c(C)c(-c4ccc(C(F)(F)F)nc4)nn3C)ncn2)c(C)c1Cl [Example 550, 6-(4-chloro-3,5-dimethyl-1H-pyrazol-1-yl)-N-{1,4-dimethyl-3-[6-(trifluoromethyl)pyridin-3-yl]-1H-pyrazol-5-yl}pyrimidin-4-amine] | 500
CCc1c(Nc2cc(-n3nc(C)cc3C)ncn2)n[nH]c1-c1ccc(F)cc1F [Example 9, N-[5-(2,4-difluorophenyl)-4-ethyl-1H-pyrazol-3-yl]-6-(3,5-dimethyl-1H-pyrazol-1-yl)pyrimidin-4-amine] | 40
Cc1nn(-c2cc(Nc3n[nH]c(-c4ccc(F)cc4)c3C)ncn2)c(C(F)F)c1Cl [Example 140, 6-[4-chloro-5-(difluoromethyl)-3-methyl-1H-pyrazol-1-yl]-N-[5-(4-fluorophenyl)-4-methyl-1H-pyrazol-3-yl]pyrimidin-4-amine] | 23
Cc1nnc(-c2c(C)nn(-c3cc(Nc4c(C)c(-c5ccc(F)cc5)nn4CC4CC4)ncn3)c2C)o1 [Example 372, N-[1-(cyclopropylmethyl)-3-(4-fluorophenyl)-4-methyl-1H-pyrazol-5-yl]-6-[3,5-dimethyl-4-(5-methyl-1,3,4-oxadiazol-2-yl)-1H-pyrazol-1-yl]pyrimidin-4-amine] | 7
COc1c(-c2ccc(C#N)cc2)nn(CC2CC2)c1Nc1cc(-n2nc(C)c(C(C)OC)c2C)ncn1 (single isomer, unassigned) [Example 335] | 51
Cc1c(-c2ccc(F)cc2)nn(CC2CC2)c1Nc1cc(-n2nc3c(c2C)C(=O)CC3)ncn1 [Example 395, 2-(6-{[1-(cyclopropylmethyl)-3-(4-fluorophenyl)-4-methyl-1H-pyrazol-5-yl]amino}pyrimidin-4-yl)-3-methyl-5,6-dihydrocyclopenta[c]pyrazol-4(2H)-one] | 19
Cc1cc(C)n(-c2cc(Nc3nn(CC4CC4)c(-c4ccc(F)cc4)c3C)ncn2)n1 [Example 169, N-[1-(cyclopropylmethyl)-5-(4-fluorophenyl)-4-methyl-1H-pyrazol-3-yl]-6-(3,5-dimethyl-1H-pyrazol-1-yl)pyrimidin-4-amine] | 690
